Laboratory results: US20230219904A1 (SYNGENTA CROP PROTECTION AG, priority 2020, published 2023)

Columns and labels:
Format in all cases: in vivo
[1] = tested on: Amaranthus retoflexus (AMARE); assay: Post-emergence herbicidal glasshouse test (Table B1); conditions: evaluated after 13 days
Protocol: (§1) Seeds of a variety of test species are sown in standard soil in pots (Lolium perenne (LOLPE), Amaranthus retoflexus (AMARE), Abutilon theophrasti (ABUTH), Setaria faberi (SETFA), Echinochloa crus-galh (ECHCG), Ipomoea hederacea (IPOHE)). After cultivation for one day (pre-emergence) or after 8 days cultivation (post-emergence) under controlled conditions in a glasshouse (at 24/16° C., day/night; 14 hours light; 65% humidity), the plants are sprayed with an aqueous spray solution derived from the formulation of the technical active ingredient in acetone/water (50:50) solution containing 0.5% Tween 20 (polyoxyethelyene sorbitan monolaurate, CAS RN 9005-64-5). Compounds are applied at 500 g/h unless otherwise indicated. The test plants are then grown in a glasshouse under controlled conditions in a glasshouse (at 24/16° C., day/night; 14 hours light; 65% humidity) and watered twice daily. After 13 days for pre and post-emergence, the test is evaluated for the percentage damage caused to the plant. The biological activities are shown in the following table on a five-point scale (5=80-100%; 4=60-79%; 3=40-59%; 2=20-39%; 1=0-19%).

[2] = tested on: Setaria faberi (SETFA); assay: as above; conditions: evaluated after 13 days
Protocol: as §1

[3] = tested on: Ipomoea hederacea (IPOHE); assay: as above; conditions: evaluated after 13 days
Protocol: as §1

[4] = tested on: Echinochloa crus-galh (ECHCG); assay: Pre-emergence herbicidal glasshouse test (Table B1); conditions: evaluated after 13 days
Protocol: as §1

[5] = tested on: Amaranthus retoflexus (AMARE); assay: as above; conditions: evaluated after 13 days
Protocol: as §1

[6] = tested on: Abutilon theophrasti (ABUTH); assay: as above; conditions: evaluated after 13 days
Protocol: as §1

[7] = tested on: Setaria faberi (SETFA); assay: as above; conditions: evaluated after 13 days
Protocol: as §1

[8] = tested on: Ipomoea hederacea (IPOHE); assay: as above; conditions: evaluated after 13 days
Protocol: as §1

[9] = tested on: Echinochloa crus-galh (ECHCG); assay: Post-emergence herbicidal glasshouse test (Table B1); conditions: applied at 125 g/ha, evaluated after 13 days
Protocol: as §1

Structure (SMILES)	POST Application AMARE, percentage damage on five-point scale ([1]; applied at 125 g/ha)	POST Application SETFA, percentage damage on five-point scale ([2]; applied at 125 g/ha)	POST Application IPOHE, percentage damage on five-point scale ([3]; applied at 125 g/ha)	PRE Application ECHCG, percentage damage on five-point scale ([4]; applied at 125 g/ha)	PRE Application AMARE, percentage damage on five-point scale ([5]; applied at 125 g/ha)	PRE Application ABUTH, percentage damage on five-point scale ([6]; applied at 125 g/ha)	PRE Application SETFA, percentage damage on five-point scale ([7]; applied at 125 g/ha)	PRE Application IPOHE, percentage damage on five-point scale ([8]; applied at 125 g/ha)	POST Application ECHCG, percentage damage on five-point scale [9]	POST Application AMARE, percentage damage on five-point scale ([1]; applied at 500 g/h)	POST Application SETFA, percentage damage on five-point scale ([2]; applied at 500 g/h)	POST Application IPOHE, percentage damage on five-point scale ([3]; applied at 500 g/h)	PRE Application ECHCG, percentage damage on five-point scale ([4]; applied at 500 g/h)	PRE Application AMARE, percentage damage on five-point scale ([5]; applied at 500 g/h)	PRE Application ABUTH, percentage damage on five-point scale ([6]; applied at 500 g/h)	PRE Application SETFA, percentage damage on five-point scale ([7]; applied at 500 g/h)	PRE Application IPOHE, percentage damage on five-point scale ([8]; applied)
Cc1nc(C(=O)Nc2c(OC(F)F)ccc(C(=O)Nc3nnnn3C)c2Cl)cs1 [Compound 1.038]	4 (4=60-79%)	4 (4=60-79%)	4 (4=60-79%)	5 (5=80-100%)	5 (5=80-100%)	5 (5=80-100%)	4 (4=60-79%)	5 (5=80-100%)									
Cn1nnnc1NC(=O)c1ccc(OC(F)F)c(NC(=O)c2cc(Cl)sc2Cl)c1Cl [Compound 1.041]	3 (3=40-59%)	3 (3=40-59%)	3 (3=40-59%)	3 (3=40-59%)	2 (2=20-39%)	5 (5=80-100%)	2 (2=20-39%)	2 (2=20-39%)									
Cc1nc(C)c(C(=O)Nc2c(OC(F)F)ccc(C(=O)Nc3nnnn3C)c2Cl)s1 [Compound 1.042]	5 (5=80-100%)	5 (5=80-100%)	5 (5=80-100%)	5 (5=80-100%)	5 (5=80-100%)	4 (4=60-79%)	5 (5=80-100%)	5 (5=80-100%)	5 (5=80-100%)								
Cn1cc(C(=O)Nc2c(OC(F)(F)F)ccc(C(=O)Nc3nnnn3C)c2Cl)c(C(F)F)n1 [Compound 1.045]	5 (5=80-100%)	5 (5=80-100%)	4 (4=60-79%)	5 (5=80-100%)	5 (5=80-100%)	5 (5=80-100%)	5 (5=80-100%)	4 (4=60-79%)	5 (5=80-100%)								
COc1ccccc1C(=O)Nc1c(OC(F)(F)F)ccc(C(=O)Nc2nnnn2C)c1Cl [Compound 1.056]	4 (4=60-79%)	4 (4=60-79%)	4 (4=60-79%)	1 (1=0-19%)	3 (3=40-59%)	5 (5=80-100%)	3 (3=40-59%)		4 (4=60-79%)								
Cn1nnnc1NC(=O)c1ccc(OC(F)(F)F)c(NC(=O)C(C)(F)F)c1Cl [Compound 1.061]	5 (5=80-100%)	5 (5=80-100%)	4 (4=60-79%)	3 (3=40-59%)	5 (5=80-100%)		3 (3=40-59%)	3 (3=40-59%)	4 (4=60-79%)								
CCCOCC(=O)Nc1c(OC(F)(F)F)ccc(C(=O)Nc2nnnn2C)c1Cl [Compound 1.062]	5 (5=80-100%)	5 (5=80-100%)	4 (4=60-79%)	2 (2=20-39%)	5 (5=80-100%)		3 (3=40-59%)	4 (4=60-79%)	4 (4=60-79%)								
CC(C)OCC(=O)Nc1c(OC(F)(F)F)ccc(C(=O)Nc2nnnn2C)c1Cl [Compound 1.064]	4 (4=60-79%)	4 (4=60-79%)	4 (4=60-79%)	3 (3=40-59%)	5 (5=80-100%)	5 (5=80-100%)	4 (4=60-79%)	4 (4=60-79%)									
CCOCC(=O)Nc1c(OC(F)(F)F)ccc(C(=O)Nc2nnnn2C)c1Cl [Compound 1.066]	4 (4=60-79%)	4 (4=60-79%)	4 (4=60-79%)	5 (5=80-100%)	5 (5=80-100%)	5 (5=80-100%)	4 (4=60-79%)	5 (5=80-100%)									
CCn1nnnc1NC(=O)c1ccc(OC(F)(F)F)c(NC(=O)CC(F)(F)F)c1Cl [Compound 1.068]	4 (4=60-79%)	5 (5=80-100%)	4 (4=60-79%)	5 (5=80-100%)	5 (5=80-100%)	5 (5=80-100%)	5 (5=80-100%)	3 (3=40-59%)									
CCn1nnnc1NC(=O)c1ccc(OC(F)F)c(NC(=O)c2cc(OC)ccn2)c1Cl [Compound 1.080]	4 (4=60-79%)	4 (4=60-79%)	4 (4=60-79%)	1 (1=0-19%)	4 (4=60-79%)	1 (1=0-19%)	1 (1=0-19%)	2 (2=20-39%)									
Cn1nnnc1NC(=O)c1ccc(OC(F)F)c(NC(=O)c2ncccc2Cl)c1Cl [Compound 1.092]	3 (3=40-59%)	4 (4=60-79%)	4 (4=60-79%)		5 (5=80-100%)	5 (5=80-100%)	5 (5=80-100%)	3 (3=40-59%)									
CCC(=O)Nc1c(OC(F)(F)C(F)F)ccc(C(=O)Nc2nnnn2C)c1Cl [Compound 1.109]										5 (5=80-100%)	5 (5=80-100%)	5 (5=80-100%)	4 (4=60-79%)	5 (5=80-100%)	5 (5=80-100%)	4 (4=60-79%)	5 (5=80-100%)
